According to ChEMBL document CHEMBL1201862, “PubChem BioAssay data set” (2004):
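Interpolation was linear, between the two tested concentrations surrounding the appropriate level; five concentrations were tested over 48 hours in 96-well plates. GI50 = concentration required for 50% inhibition of growth.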 Activity calls are given as the source filed them. Rule as the data show it: active = GI50 up to about 1.1 µM and inactive = higher.

Tests used:
Assay in all cases: NCI-60 cell line screen, 48 h
MDA-MB-435 = tested on: MDA-MB-435
ACHN = tested on: ACHN
OVCAR-4 = tested on: OVCAR-4
OVCAR-8 = tested on: OVCAR-8
SNB-75 = tested on: SNB-75
DU-145 = tested on: DU-145
HOP-92 = tested on: HOP-92
A498 = tested on: A498
SW-620 = tested on: SW-620
Malme-3M = tested on: Malme-3M
OVCAR-3 = tested on: OVCAR-3
KM12 = tested on: KM12
HOP-62 = tested on: HOP-62
MDA-N = tested on: MDA-N
SF-268 = tested on: SF-268
PC-3 = tested on: PC-3
SNB-19 = tested on: SNB-19
EKVX = tested on: EKVX
SR = tested on: SR
HL-60 = tested on: HL-60

Structure (SMILES) | GI50 (MDA-MB-435) | GI50 (ACHN) | GI50 (OVCAR-4) | GI50 (OVCAR-8) | GI50 (SNB-75) | GI50 (DU-145) | GI50 (HOP-92) | GI50 (A498) | GI50 (SW-620) | GI50 (Malme-3M) | GI50 (OVCAR-3) | GI50 (KM12) | GI50 (HOP-62) | GI50 (MDA-N) | GI50 (SF-268) | GI50 (PC-3) | GI50 (SNB-19) | GI50 (EKVX) | GI50 (SR) | GI50 (HL-60)
C/C=C\C(CC(=O)NCCC1CN(S(=O)(=O)c2ccc(C)cc2)c2ccccc21)CC(=O)OC (stereo not drawn) | > 100 µM (inactive) | > 100 µM (inactive) | > 100 µM (inactive) | > 100 µM (inactive) | > 100 µM (inactive) | > 100 µM (inactive) | > 100 µM (inactive) | > 100 µM (inactive) | > 100 µM (inactive) | > 100 µM (inactive) | > 100 µM (inactive) | > 100 µM (inactive) | > 100 µM (inactive) | > 100 µM (inactive) | > 100 µM (inactive) | > 100 µM (inactive) | > 100 µM (inactive) | > 100 µM (inactive) |  | 
O=C(O)/C(Cl)=C(Cl)/C=N/NC(=O)c1cc2ccccc2cc1O |  | 18 µM (inactive) | 5.66 µM (inactive) | 19.7 µM (inactive) | 3.38 µM (inactive) |  | 30.3 µM (inactive) | 24.6 µM (inactive) | 17.3 µM (inactive) | 37.2 µM (inactive) | 6.11 µM (inactive) | 36.8 µM (inactive) | 36.6 µM (inactive) |  | 7.66 µM (inactive) |  | 35.2 µM (inactive) | 30.2 µM (inactive) | 9.55 µM (inactive) | 5.42 µM (inactive)
Cc1cc2c3c(nc4ccccc42)C(=O)c2ccccc2-c3n1 | 1.66 µM (inactive) | 12.2 µM (inactive) | 25.4 µM (inactive) | 5.52 µM (inactive) | 4.37 µM (inactive) | 23.5 µM (inactive) | 19.3 µM (inactive) | 16.9 µM (inactive) | 9.48 µM (inactive) |  | 0.135 µM (active) | 1.02 µM (active) | 6.18 µM (inactive) |  | 30.6 µM (inactive) | 0.851 µM (active) | 45.8 µM (inactive) | 29.4 µM (inactive) | 1.79 µM (inactive) | 
CCC(C(=O)C(=O)OC)P1(=O)OC(C)(C)CN1C(C)(C)C (stereo not drawn) | > 100 µM (inactive) | > 100 µM (inactive) | > 100 µM (inactive) | > 100 µM (inactive) | > 100 µM (inactive) | > 100 µM (inactive) |  | 20.5 µM (inactive) | > 100 µM (inactive) | > 100 µM (inactive) | > 100 µM (inactive) | > 100 µM (inactive) | > 100 µM (inactive) |  | > 100 µM (inactive) | > 100 µM (inactive) | > 100 µM (inactive) | > 100 µM (inactive) | > 100 µM (inactive) | 
Cc1ccc(Nc2[nH]c(=O)[nH]c(=O)c2C)cc1Cl | > 100 µM (inactive) | > 100 µM (inactive) | > 100 µM (inactive) | > 100 µM (inactive) | 29.8 µM (inactive) |  | 76 µM (inactive) | > 100 µM (inactive) | > 100 µM (inactive) | > 100 µM (inactive) | 62.1 µM (inactive) | > 100 µM (inactive) | > 100 µM (inactive) | > 100 µM (inactive) | 87.7 µM (inactive) | 67.9 µM (inactive) | > 100 µM (inactive) | 11 µM (inactive) |  | 
COC(=O)CCCc1ccc2c(c1)CC1(C2)Cc2cc3c(cc2C1)CCCC3 | 13.9 µM (inactive) | 42.7 µM (inactive) | 42.5 µM (inactive) | 44.5 µM (inactive) |  |  | 26.1 µM (inactive) | 41.9 µM (inactive) |  | 37.6 µM (inactive) | 27.5 µM (inactive) | 36.9 µM (inactive) | 34.8 µM (inactive) | 16.8 µM (inactive) |  | 36.8 µM (inactive) |  | 35.2 µM (inactive) | < 0.01 µM (active) | 12.4 µM (inactive)
COc1ccc(N2C(=O)C3CC(c4ccc(C)cc4)c4c([nH]c5ccccc45)C3C2=O)cc1 (stereo not drawn) |  | 21.6 µM (inactive) | 13.9 µM (inactive) | 5.43 µM (inactive) | 18.4 µM (inactive) |  | 24 µM (inactive) | 30.2 µM (inactive) | 6.22 µM (inactive) | 15.5 µM (inactive) | 5.65 µM (inactive) | > 41.1 µM (inactive) | 18.1 µM (inactive) |  | 19.5 µM (inactive) |  | 12.4 µM (inactive) | > 63.5 µM (inactive) | 2.02 µM (inactive) | 14.5 µM (inactive)
CCCCOC(=O)C1C(c2ccc(Cl)cc2)NC(c2ccc(Cl)cc2)C(C(=O)OCCCC)S1(=O)=O (stereo not drawn) |  | > 100 µM (inactive) | > 100 µM (inactive) | > 100 µM (inactive) | > 100 µM (inactive) |  | > 100 µM (inactive) | > 100 µM (inactive) | > 100 µM (inactive) | > 100 µM (inactive) | > 100 µM (inactive) | > 100 µM (inactive) | > 100 µM (inactive) |  | > 100 µM (inactive) |  | > 100 µM (inactive) | > 100 µM (inactive) | > 100 µM (inactive) | 8.83 µM (inactive)
O=C1[C@H](O)[C@@H]2C(O)O[C@H]3[C@@H]2N1C[C@H]3[Si](c1ccccc1)(c1ccccc1)c1ccccc1 (stereo partly drawn) | > 100 µM (inactive) | > 100 µM (inactive) | > 100 µM (inactive) | > 100 µM (inactive) | 5.94 µM (inactive) | > 100 µM (inactive) |  | > 100 µM (inactive) | > 100 µM (inactive) |  | > 100 µM (inactive) | > 100 µM (inactive) | > 100 µM (inactive) |  | > 100 µM (inactive) | > 100 µM (inactive) | > 100 µM (inactive) | > 100 µM (inactive) | > 100 µM (inactive) | 
CC(Cc1ccc(O)cc1)NCC(O)c1ccc(O)c(O)c1 (stereo not drawn) | > 100 µM (inactive) | > 100 µM (inactive) | > 100 µM (inactive) | > 100 µM (inactive) | > 100 µM (inactive) | > 100 µM (inactive) | > 100 µM (inactive) | > 100 µM (inactive) | > 100 µM (inactive) | > 100 µM (inactive) | 81.7 µM (inactive) | > 100 µM (inactive) | > 100 µM (inactive) |  | > 100 µM (inactive) | > 100 µM (inactive) | > 100 µM (inactive) | > 100 µM (inactive) | 88.3 µM (inactive) | 
O=C1C(=CNc2ccccc2Cl)C(=O)N(c2ccccc2)C(=O)N1c1ccccc1 | > 100 µM (inactive) | > 100 µM (inactive) | > 100 µM (inactive) | 23.7 µM (inactive) |  |  | > 100 µM (inactive) | 85.1 µM (inactive) | > 100 µM (inactive) | > 100 µM (inactive) | > 100 µM (inactive) | > 100 µM (inactive) | > 100 µM (inactive) | > 100 µM (inactive) | > 100 µM (inactive) | > 100 µM (inactive) | > 100 µM (inactive) | > 100 µM (inactive) |  | 
CN1NC2(CCCCC2)ON=C1c1ccccc1 |  | > 100 µM (inactive) | > 100 µM (inactive) | > 100 µM (inactive) | > 100 µM (inactive) |  | > 100 µM (inactive) | > 100 µM (inactive) | > 100 µM (inactive) | > 100 µM (inactive) | > 100 µM (inactive) | > 100 µM (inactive) | > 100 µM (inactive) |  | > 100 µM (inactive) |  | > 100 µM (inactive) | > 100 µM (inactive) | > 100 µM (inactive) | > 100 µM (inactive)
N=C1OC(c2ccc3c(c2)OCO3)C(NNS(=O)(=O)c2ccccc2)=C1O (stereo not drawn) |  | > 100 µM (inactive) | > 100 µM (inactive) | > 100 µM (inactive) | > 100 µM (inactive) |  | > 100 µM (inactive) | > 100 µM (inactive) | > 100 µM (inactive) | > 100 µM (inactive) | > 100 µM (inactive) | > 100 µM (inactive) | > 100 µM (inactive) |  | > 100 µM (inactive) |  | > 100 µM (inactive) | > 100 µM (inactive) | 61.2 µM (inactive) | > 100 µM (inactive)
Cc1ccc(OCCn2cc(Nc3ccccc3)c(=O)n(CCOc3ccc(C)cc3)c2=O)cc1 | > 100 µM (inactive) | > 100 µM (inactive) | 49.9 µM (inactive) | 40.6 µM (inactive) | > 100 µM (inactive) | > 100 µM (inactive) | 44.5 µM (inactive) | > 100 µM (inactive) | > 100 µM (inactive) | 80 µM (inactive) | > 100 µM (inactive) | > 100 µM (inactive) |  | > 100 µM (inactive) | 35.6 µM (inactive) | 93.5 µM (inactive) | 48.9 µM (inactive) | > 100 µM (inactive) |  | 
NNC(=O)N/N=C1\C(=O)N(c2ccc(Cl)c(Cl)c2)C(=O)C(=O)C1c1nc2ccccc2s1 (stereo not drawn) |  | > 100 µM (inactive) | > 100 µM (inactive) | > 100 µM (inactive) | > 100 µM (inactive) |  | > 100 µM (inactive) | > 100 µM (inactive) | > 100 µM (inactive) | > 100 µM (inactive) | > 100 µM (inactive) | > 100 µM (inactive) | > 100 µM (inactive) |  | > 100 µM (inactive) |  | > 100 µM (inactive) | > 100 µM (inactive) | 89.9 µM (inactive) | > 100 µM (inactive)
C=C(C)[C@H]1C=C[C@@H](OC(C)=O)[C@@]2(COC(C)=O)[C@H](OC(=O)CCC)[C@H]3[C@@H](OC(C)=O)[C@@H](C)C[C@]3(O)C(=O)[C@@](C)(OC(C)=O)[C@H]12 | 15.3 µM (inactive) | 34.2 µM (inactive) | 35.6 µM (inactive) | 29.7 µM (inactive) | 46 µM (inactive) |  | 3.53 µM (inactive) | 67 µM (inactive) | 55 µM (inactive) | 45.3 µM (inactive) |  | 39.9 µM (inactive) |  |  | 67 µM (inactive) | 31.6 µM (inactive) | 66.2 µM (inactive) | 38.2 µM (inactive) | 36.3 µM (inactive) | 33.5 µM (inactive)
